Assay results as given in patent US4724238A, “Method of treating inflammatory diseases with labdan derivatives” (Hoechst Aktiengesellschaft, priority 1985, dated 1988).

Tests used:
[1] = test system: Acetic acid induced writhing in mice; test: Analgesic activity, acetic acid writhing test; type: in vivo, mouse (male); conditions: Mus musculus, sc, 30 minutes before 0.2 ml of 3% acetic acid i.p.; observed 15 minutes
Method: Analgesic activity--Acetic acid writhing test
A test compound suspended in 0.5% carboxy methyl cellulose is given subcutaneously to the male mice (20-25 g). The control group received only the 0.5% CMC. After 30 minutes, 0.2 ml of 3% acetic acid is administered intraperitoneally. The animals are observed for 15 minutes for a characteristic stretching or writhing syndrome which is indicative of pain induced by acetic acid. Six animals are used per group.
In the test group, mice which show less than or equal to 50 percent of the mean control writhing value are considered to be protected. (Blumberg et al. Proc. Soc. Exp. Biol. Med., 118, 763-766, 1965). The percent analgesic activity is calculated as follows: [formula] The ED50 value is calculated from the dose response curve.

[2] = test system: rat paw oedema; test: Acute carrageenin-induced rat paw oedema test (systemic); type: in vivo, rat (Charles Foster, male); conditions: ip, paw volume at 3 and 6 hours after carrageenin
Method: (a) Acute carrageenin-induced rat paw oedema test Charles Foster male rats (120-150 g) are fasted for 18 hrs. with water ad libitum. The test compound suspended in 0.5% carboxymethyl cellulose (CMC) is given intraperitoneally. The control group receives 0.5% CMC suspension. 0.05 ml of the 0.5% carrageenin suspension is injected subcutaneously into the planter region of the left hind paw. The paw volume is determined before carrageenin injection and at 3 hours and 6 hours after injection using a Maclab volume differential meter. The percentage decrease in paw volume is calculated with the following formula: [formula] The ED50 value is calculated from the dose-response curve. Six animals are used per group.

[3] = test system: rat ear inflammation; test: Croton oil-induced local inflammation test in rats (topical); type: in vivo, rat (Charles Foster's strain); conditions: applied with the irritant, 4 hours
Method: (b) Croton oil-induced local inflammation test in rats A volume of 0.05 ml of croton oil irritant (2.0 ml pyridine, 0.5 ml distilled water+7.4 ml diethyl ether+0.1 ml croton oil) is applied under ether anaesthesia to the anterior and posterior sides of the ear of rats weighing 45 to 60 g (Charles Foster's strain) with the help of a micro glass syringe and a blunt 20 gauge needle/Tonelli G., Thibault L. and Ringer I, Endocrinology 77, 625-634 (1965)/. The right untreated ear serves as control. The drug treated group receives different concentrations of compounds along with the irritant. Four hours later the animals are sacrificed. The ears are removed and punched with an 8 mm diameter cork borer. The punched portions are immediately weighed. The increase in the weight of ear is determined by the difference in the weight between the left and right ear. The topical anti-inflammatory activity of the test compound is expressed as the percent inhibition of the increase in ear weight of the irritant treated ear according to the following formula [formula] The ED50 value is calculated from the dose response curve. Six animals are used per group.

[4] = test system: Adjuvant-induced arthritis in rats; test: Adjuvant-induced arthritis test in rats, established arthritis; type: in vivo, rat (Charles Foster, female); conditions: i.p., once daily from day 15 to day 21
[5] = test system: Adjuvant-induced arthritis in rats; test: Adjuvant-induced arthritis test in rats, developing arthritis; type: in vivo, rat (Charles Foster, female); conditions: i.p., once daily for 21 days

With `C=C[C@@]1(C)CC(=O)[C@@H]2[C@@]3(C)CCCC(C)(C)[C@@H]3[C@H](O)[C@H](OC(C)=O)[C@@]2(C)O1` [1,9-Dideoxyforskolin, 7β-acetoxy-1,9-dideoxy-8,13-epoxy-6β-hydroxy-labd-14-en-11-one] the ED50 [1] was 9 mg/kg, the ED50 [2] was 2.2 mg/kg and the “ED50, croton oil induced rat ear inflammation” value [3] was 1.6 mg/ear. For the same compound, the “% inhibition of paw volume, established arthritis” value ([4]; 3.0 mg/kg) was 30% and the “% inhibition of paw volume, developing arthritis” value ([5]; 3.0 mg/kg) was 62%.

With `C=C[C@@]1(C)CC(=O)[C@]2(O)[C@@]3(C)[C@@H](O)CCC(C)(C)[C@@H]3[C@H](O)[C@H](OC(C)=O)[C@@]2(C)O1` [Forskolin, 7β-acetoxy-8,13-epoxy-1α,6β,9α-trihydroxy-labd-14-en-11one] the ED50 [2] was 4.8 mg/kg, the “ED50, croton oil induced rat ear inflammation” value [3] was 1.15 mg/ear and the “% inhibition of paw volume, established arthritis” value ([4]; 2.4 mg/kg) was 27%. For the same compound, the “% inhibition of paw volume, developing arthritis” value ([5]; 2.5 mg/kg) was 23%.
